“Also recorded” adds a separate entry of the source.

The values that follow come from patent US11311560B2, “Cyclic plasmenylethanolamines” (MED-LIFE DISCOVERIES LP, priority 2017, dated 2022).

One data set has as its system Pex7 null animals. Conditions: very high doses (over 3000 mg/kg); cited from earlier work.
Another data set relates to Pex7 hypomorphic animals. Conditions: 50 mg/kg/day for 2 months; cited from earlier work.
The subject of another data set is Pex7 hypomorphic mice. The settings on record: 13C-labeled version of PPI-1011; cited from earlier work.
Data set [1] has as its system Pex7 hypomorph/null mice. Put plainly: Open field test after 4 weeks oral treatment. Conditions: 50 mg/kg oral gavage, 5 days per week, 5 minutes test. The format is in vivo, mouse. The source says: (§1) The Pex7 hypomorph/null model is a hypomorphic (B6;129S6-Pex7^tm2.3Brav/s9) mouse model on a mixed background (C57BL/6NCrl and 129S6/SvEvTac). The hypomorphic allele in Pex7 hypomorph/null was generated by inserting an inverse neo cassette into intron 2 and lox P sites surrounding exon 3. The Pex7 null allele was generated using (B6.C-Tg(cmv-cre)1Cgn/J) mouse. The Pex7 hypomorph/null mouse model has 90% survival, 0.016-0.257% of wild type Pex7 mRNA levels and 20-30% plasmalogen levels Pex7 hypomoprh/null mice (3-4 months); and wild-type animals, males and females included in treatments and behavioral tests. Pex7 hypomorph/null mice were randomly assigned, after a baseline open field test, into 3 treatment groups: PPI-1040, PPI-1011, and vehicle controls, n=6 mice per group). PPI-1011 or PPI-1040 at 50 mg/kg was given by oral gavage 5 days per week (Monday-Friday) for 4 weeks. During the treatment period, animals were weighed weekly and observed for signs of distress. The open field test was performed at the end of treatment. To avoid selection bias, data analysis was performed only at the study end. Animals were sacrificed after a 24-hour post the last dose.
The open field test is a behavioral test used to evaluate the general locomotor activity, exploratory and anxiety-like behaviour of mice in response to a novel environment. The animal is placed inside a custom made square, gray acrylic box measuring 40×40×40 cm and allowed to move freely for 5 minutes while being recorded by an overhead camera (camera model). The footage was analyzed by an automated tracking system (Any-maze Video Tracking Software, Stoelting Co, Wood Dale, Ill., USA), for total distance traveled (meters) & activity (mobility in seconds) time. The total distance traveled is the total distance that animal traveled during the test and the activity measures the amount of time the animal was active during the test.

For data set [2], the system named is Pex7 homozygous hypomorphic animals (Pex7^neo/neo). The data set is described as follows: 2 week comparison of plasmalogen precursors: plasmalogen levels in plasma and liver (LC-MS). It is filed as in vivo, mouse. As to the method: Pex7 homozygous hypomorphic animals (Pex7^neo/neo) were used as a model of rhizomelic chondrodysplasia punctata (RCDP). Mice were dosed with either PPI-1011 or PPI-1040 at equimolar concentrations of 100 mg/Kg and 89.7 mg/Kg respectively. PPI-1011 was formulated in Neobee M-5, at a concentration of 12.5 mg/mL and stored at −20° C. until the first treatment day after which point the remaining formulation was stored at 4° C. Oral gavage volumes were adjusted by mouse weight to ensure a 100 mg/kg dose. PPI-1040 was stored in a sealed ampoule in solution with dichloromethane under argon gas until immediately before use. At time of treatment the ampoule was opened and dichloromethane was evaporated off under nitrogen gas for 10 minutes. Neobee M-5 was then added and the solution and vortexed to generate a 22.4 mg/mL formulation. Animals were dosed via intraperitoneal injections with doses adjusted by weight to ensure an 89.7 mg/Kg dose to each animal. Animals were sacrificed 24 hours after the ninth treatment (week 1-Monday to Friday and week 2-Monday to Thursday). Blood samples were collected in EDTA tubes and then spun down in a clinical centrifuge. Plasma samples were stored at −80° C. until thawed for analysis. Tissue samples were harvested and flash frozen in liquid nitrogen and then stored at −80° C. All tissue samples were homogenized using liquid nitrogen, generating a fine powder.
Plasma aliquots of 20 μL were analyzed, while tissues were aliquoted with anti-static polypropylene disposable milligram scoops prior to analysis. Water (200 μL) was added and samples were ice bath sonicated for 30 mins prior to the addition of 600 μL of ethyl acetate. Samples were mixed at 2000 rpm for 15 mins followed by a 10 min centrifugation at 3500 rpm. Tissue samples were diluted into an ethyl acetate (1:4) containing labeled internal standards [^13C-PlsEtn (C37^13C6H74NO7P) and ^13C-PtdEtn (C24^13C19H74NO8P)]. Water (80 μL) was added and samples were again stirred at 2000 rpm for 15 mins followed by a 2 min centrifugation at 3500 rpm. High-throughput analysis method was based on multiple reaction monitoring of one parent/fragment transition for the ion pairs, performed using liquid chromatography-mass spectrometry.

The conditions of data set [3]: healthy animals; cited from earlier work.
Data set [4] relates to Pex7 hypomorph/null mice. Put plainly: 4 weeks oral treatment of Pex7 hypomorph/null animals: plasmalogen levels in plasma and tissues. It is filed as in vivo, mouse. The settings on record: 50 mg/kg oral gavage, 5 days per week.
Excerpt: as §1
Tissue samples frozen by submersion in liquid nitrogen were homogenized using the Covaris Cryoprep resulting in a fine powder. The powder was then aliquoted using anti-static polypropylene disposable milligram scoops (TWD Tradewinds) resulting in 4-6 mg of tissue per 1.4 ml Thermo matrix tubes. Weights were recorded and metabolite levels were normalized per mg of tissue. HPLC grade water (50 μl) was added into each tube and samples were snap frozen in liquid nitrogen and then stored at −80° C. until extraction. On the day of the extraction, tissue samples were thawed to room temperate and sonicated for 15 mins in an ice bath before mixing at 2000 rpm for a 5 minute and then adding 600 μL of ethyl acetate. Lipids were extracted into ethyl acetate by mixing at 1750 rpm for 1 hr followed by a 10 min centrifugation at 3500 rpm to obtain a clear ethyl acetate layer. Tissue lipid extracts were diluted into an ethyl acetate stock (brain regions diluted 1:10, peripheral tissues 1:5) containing labeled internal standard [^13C-PlsEtn (C37^13C6H74NO7P). Water (40 μL) was added to the diluted extracts and samples were stirred at 1500 rpm for 1 hr followed by a 2 min centrifugation at 3500 rpm.
Plasma extraction was performed on 20 μL aliquots in 1.4 ml Thermo matrix tubes. Lipids were extracted by adding HPLC grade water (50 μl) and ethyl acetate containing labeled internal standard [^13C-PlsEtn (C37^13C6H74NO7P) at 0.2 μg/mL (500 μL) to each plasma sample and then mixing at 1750 rpm for 1 hr followed by a 2 min centrifugation at 3500 rpm for phase separation.
A 100 μL aliquot of the ethyl acetate layer was analyzed using FI-MS/MS on a API4000™ mass spectrometer (Applied Biosystems) coupled with Agilent 1100 HPLC pump and auto sampler. Each transition was scanned for 50 ms with a total acquisition time per sample of 2 min. ethyl acetate:methanol:water ratio of 80:15:5 at a flow rate of 600 μL/min was used as the mobile phase. All standards and stable isotopes used were >95% pure and manufactured by Med-Life Discoveries LP. All the solvents used above were HPLC grade. All samples were analyzed in triplicate to control for any variation resulting from instrument variability. Stable isotope ratios for each analyte were calculated for all tissue and plasma samples (Table 2).

[5] abbreviates: PPI-1011 100 mg/Kg oral or PPI-1040 89.7 mg/Kg intraperitoneal, 2 weeks.

On to `CCCCCCCCCCCCCCCCCCOCC(O)CO` (racemic) [Batyl alcohol, 1-O-octadecyl-rac glycerol], for which, in the data set on Pex7 null animals, the “plasmalogen levels in brain and nervous system tissues” value is given as “very limited increases”; the “plasmalogen levels in erythrocytes and peripheral tissues” value is “augmentation of plasmalogen levels in erythrocytes and peripheral tissues”. For the same compound, in the data set with Pex7 hypomorphic animals, the clinical improvement result is given as “not associated with clinical improvement” and the “plasmalogen content in red blood cells” value is reported as “partial increase”.
For the compound `CC/C=C\C/C=C\C/C=C\C/C=C\C/C=C\C/C=C\CCC(=O)OC(COCCCCCCCCCCCCCCCC)COC(=O)CCCC[C@@H]1CCSS1` (stereo partly shown) [PPI-1011, reference compound], in the data set with Pex7 hypomorphic mice, the “incorporation of labeled plasmalogen into nervous system tissue” value was “low”; the “incorporation of labeled plasmalogen into tissues” value is “incorporated into peripheral tissues, as well as the neocortex and eye”. In addition, in the data set on Pex7 hypomorph/null mice [1], the “open field: time active” value is given as “did not result in a decrease in activity levels” and the “open field: total distance traveled” value is on record as “did not result in a decrease in activity levels”. For the same compound, the “levels of the target plasmalogen (16:0/22:6) in the plasma” value in data set [2] (PPI-1011 100 mg/Kg oral gavage, 2 weeks (9 treatments)) is reported as “increase observed”. Moreover, in data set [2] (setting [5]), the “16:0 plasmalogen pool in liver” value is “no increase in this pool was observed” and the “target plasmalogen (16:0/22:6) levels in liver” value is “unable to augment levels to control levels”. Further, in data set [3], the oral bioavailability entry is “orally bioavailable”; the “plasma and tissue PlsEtn levels” value was “capable of augmenting plasma and tissue PlsEtn levels”. Moreover, in the data set with Pex7 hypomorph/null mice [4], the liver plasmalogen levels entry is listed as “did not increase the levels of any plasmalogen species in the liver”; the “plasma plasmalogen levels (all species measured)” value is listed as “did not result in significant augmentation of any plasmalogen species measured; also recorded: ineffective at augmenting plasmalogen levels; also recorded: significantly below baseline”; the “plasmalogen levels in tissues (peripheral and brain)” value is given as “did not increase the levels of any plasmalogen species in any of the tissues tested”.
